One assay concerns CHO-K1 derived cell line. Conditions: for Average seven-day antibody titer: 100 mg/L ornithine.HCl, with or without 115 mg/L putrescine.2HCl.
Assay [1] relates to recombinant antibody producing cell line derived from CHO K1 cells. As to the kind of experiment: Cell doubling time in logarithmic growth phase, seed train cultures passaged over 14 days. In kind it is cell-based, Chinese hamster. Conditions: ornithine.HCl 100 mg/L, with or without putrescine.2HCl 115 mg/L. As to the method:
The doubling time of a recombinant antibody producing cell line derived from CHO K1 cells in logarithmic growth phase was determined under various cell culture media conditions. Seed train cultures were passaged at 36.5° C. in 250 mL shaker flasks over a period of 14 days in each of three separate media: Medium 1, Medium 2, and Medium 2 containing soy hydrolysate (Medium 2+ Soy). Aliquots of 1 mL were removed from each condition on Day 0 and at the time of seed train passage (every 2 or 3 days), and viable cell counts were conducted using trypan blue exclusion on a CDV™ instrument (Nova Biomedical).

In assay [2] the test system is recombinant antibody producing cell line derived from CHO K1. As to the kind of experiment: Antibody titer in Medium 3 with various amounts of ornithine.HCl, 50 mL TubeSpin Bioreactors. In kind it is cell-based, Chinese hamster. Conditions: Medium 3, three days, all three levels of ornithine supplementation, N=3. The text has this:
The results are depicted in Table 6.

Counter-ions that a name gives are not always drawn. Like-named read-outs stand apart in the source and are kept apart here.

Procedure for CHO-K1 derived cell line: We examined the expression and secretion of recombinant IgG by a CHO-K1 derived cell line. In this experiment, the average antibody titer was determined at day seven in culture under various media formats.

With `NCCC[C@H](N)C(=O)O` [Ornithine, L-ornithine.HCl], the “Average seven-day antibody titer” value in the assay on CHO-K1 derived cell line (Medium 1) is 0.94 g/L; in the assay on CHO-K1 derived cell line (Medium 2 + Soy) it was 0.98 g/L; with CHO-K1 derived cell line (Medium 2), 0.65 g/L. Besides, the “Increase in protein titer” value in the assay on CHO-K1 derived cell line (day seven, in all cases (Medium 1, Medium 2, Medium 2+ Soy), versus low putrescine 0.4 mg/L) is “at least about two-fold”. For the same compound, the Cell doubling time was 23 h in assay [1] (Medium 1), 20.5 h in assay [1] (Medium 2 + Soy) and 21 h in assay [1] (Medium 2). Also, the “Improvement of antibody titer on the average” value in assay [2] was “more than 50%”.

The values above are taken from patent publication US11332771B2, “Serum-free cell culture medium” (Regeneron Pharmaceuticals, Inc., priority 2013, dated 2022).
